Results: ChEMBL document CHEMBL5038679, “Fluoroalkylation of Dextromethorphan Improves CNS Exposure and Metabolic Stability” (ACS Med Chem Lett, 2022)
≈ marks a conversion by molar mass, not a printed value.

Experiments:
[1] = molecular target: T1, Sodium-dependent noradrenaline transporter (Homo sapiens, UniProt P23975); test: Displacement of […] from NET (unknown origin) expressed in HEK cell membrane incubated for 2 hrs by liquid scintillation counter analysis
[2] = molecular target: Glutamate [NMDA] receptor; test: Displacement of […] from NMDA receptor (unknown origin) expressed in HEK cell membrane incubated for 2 hrs by liquid scintillation counter analysis
[3] = molecular target: Sigma intracellular receptor 2 (Homo sapiens, UniProt Q5BJF2); test: Displacement of […] from sigma-2 receptor (unknown origin) expressed in HEK cell membrane incubated for 2 hrs by liquid scintillation counter analysis
[4] = molecular target: Sigma non-opioid intracellular receptor 1 (Homo sapiens, UniProt Q99720); test: Displacement of […] from sigma-1 receptor (unknown origin) expressed in HEK cell membrane incubated for 2 hrs by liquid scintillation counter analysis
[5] = Aqueous solubility of compound in universal buffer at pH 7.4 at 100 uM incubated for 1.5 hrs under shaking condition by LC-MS/MS analysis; assay type: physicochemical
[6] = Aqueous solubility of compound in universal buffer at pH 3 at 100 uM incubated for 1.5 hrs under shaking condition by LC-MS/MS analysis; assay type: physicochemical
[7] = molecular target: T1, Sodium-dependent noradrenaline transporter; test: Inhibition of human NET expressed in human HEK293 cells assessed as inhibition of substrate transport measured after 1 hr by flourescence based plate reader assay; assay type: cell-based
hERG (KCNH2) = hERG (KCNH2) (Homo sapiens, UniProt Q12809); test: Inhibition of human ERG at 10 uM measured after 15 mins by plate reader method relative to control; assay type: toxicity
[8] = Stability in human liver microsomes assessed as half life at 10 uM measured upto 120 mins by LC-MS/MS analysis; assay type: ADME, Microsome
[9] = Cmax in Sprague-Dawley rat plasma at 2.5 mg/kg, po measured after 24 hrs by LC-MS/MS analysis; assay type: ADME, organism-based; parameters: route oral, dose 2.5 mg/kg, time 24 hrs
[10] = Cmax in Sprague-Dawley rat brain at 2.5 mg/kg, po measured after 24 hrs by LC-MS/MS analysis; assay type: ADME, organism-based; parameters: route oral, time 24 hrs, dose 2.5 mg/kg
[11] = AUC in Sprague-Dawley rat plasma at 2.5 mg/kg, po measured after 24 hrs by LC-MS/MS analysis; assay type: ADME, organism-based; parameters: route oral, time 24 hrs, dose 2.5 mg/kg
[12] = AUC in Sprague-Dawley rat brain at 2.5 mg/kg, po measured after 24 hrs by LC-MS/MS analysis; assay type: ADME, organism-based; parameters: route oral, time 24 hrs, dose 2.5 mg/kg
[13] = Protein binding in Sprague-Dawley rat plasma assessed as unbound fraction at 20 uM by NMR analysis; assay type: ADME, cell-free
[14] = Protein binding in Sprague-Dawley rat brain plasma assessed as unbound fraction at 5 uM measured after 4 hrs by LC-MS analysis; assay type: ADME, tissue-based
[15] = Unbound brain-to-plasma concentration ratio in Sprague-Dawley rat; assay type: ADME, cell-free; details: read-out: K(p,uu,brain)
[16] = Volume of distribution in Sprague-Dawley rat at 2.5 mg/kg, po measured after 24 hrs by LC-MS/MS analysis; assay type: ADME, organism-based; details: in vivo
[17] = Clearance in Sprague-Dawley rat plasma at 2.5 mg/kg, po measured after 24 hrs by LC-MS/MS analysis; assay type: ADME, organism-based
[18] = Half life in Sprague-Dawley rat plasma at 2.5 mg/kg, po measured after 24 hrs by LC-MS/MS analysis; assay type: ADME, organism-based
[19] = Half life in Sprague-Dawley rat brain at 2.5 mg/kg, po measured after 24 hrs by LC-MS/MS analysis; assay type: ADME, organism-based
in vitro [20] = details: human, liver microsomes
in vitro [21] = details: dog, MDCK-MDR1
Description: Apparent permeability in dog MDCK-MDR1 cells from apical to basal side measured after 30 to 120 mins by LC-MS analysis

in vitro [22] = details: dog, MDCK-MDR1; remark: listed apart in the source
Description: Apparent permeability in dog MDCK-MDR1 cells from basal to apical side measured after 30 to 120 mins by LC-MS analysis

[23] = molecular target: T2, Sodium-dependent serotonin transporter (Homo sapiens, UniProt P31645); test: biochemical; assay type: cell-based, HEK
Description: Displacement of [3H]-Citalopram from SERT receptor (unknown origin) expressed in HEK cell membrane incubated for 2 hrs by liquid scintillation counter analysis

[24] = molecular target: T2, Sodium-dependent serotonin transporter; assay type: cell-based, HEK293
[25] = Efflux ratio of apparent permeability across basolateral to apical side over apical to basolateral side in dog MDCK-MDR1 cells measured after 30 to 120 mins by LC-MS analysis; assay type: ADME, cell-based, Canis lupus familiaris; details: time 30-120 min

T2 sequence (P31645 whole entry): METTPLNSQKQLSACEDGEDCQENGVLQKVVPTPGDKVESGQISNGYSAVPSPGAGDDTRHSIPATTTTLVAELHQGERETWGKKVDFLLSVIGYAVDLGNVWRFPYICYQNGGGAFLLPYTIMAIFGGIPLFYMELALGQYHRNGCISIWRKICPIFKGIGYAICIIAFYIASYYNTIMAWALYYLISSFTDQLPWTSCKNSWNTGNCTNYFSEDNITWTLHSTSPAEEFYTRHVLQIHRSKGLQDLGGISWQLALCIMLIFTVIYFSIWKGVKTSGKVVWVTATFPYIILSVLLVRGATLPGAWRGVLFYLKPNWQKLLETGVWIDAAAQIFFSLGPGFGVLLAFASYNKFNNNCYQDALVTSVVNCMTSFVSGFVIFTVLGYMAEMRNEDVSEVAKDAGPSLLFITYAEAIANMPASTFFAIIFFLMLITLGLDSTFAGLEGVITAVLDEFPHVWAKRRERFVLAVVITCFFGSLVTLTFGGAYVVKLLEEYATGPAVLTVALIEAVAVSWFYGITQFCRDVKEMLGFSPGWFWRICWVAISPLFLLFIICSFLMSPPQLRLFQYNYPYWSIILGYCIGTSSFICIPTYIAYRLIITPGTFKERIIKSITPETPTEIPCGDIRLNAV
Sigma intracellular receptor 2, sequence (Q5BJF2 whole entry): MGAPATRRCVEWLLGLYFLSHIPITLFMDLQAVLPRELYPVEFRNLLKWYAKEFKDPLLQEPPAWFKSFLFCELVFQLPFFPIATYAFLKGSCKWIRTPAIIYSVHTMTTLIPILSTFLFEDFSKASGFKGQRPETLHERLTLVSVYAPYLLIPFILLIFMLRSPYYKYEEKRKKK
T1 sequence (P23975 whole entry): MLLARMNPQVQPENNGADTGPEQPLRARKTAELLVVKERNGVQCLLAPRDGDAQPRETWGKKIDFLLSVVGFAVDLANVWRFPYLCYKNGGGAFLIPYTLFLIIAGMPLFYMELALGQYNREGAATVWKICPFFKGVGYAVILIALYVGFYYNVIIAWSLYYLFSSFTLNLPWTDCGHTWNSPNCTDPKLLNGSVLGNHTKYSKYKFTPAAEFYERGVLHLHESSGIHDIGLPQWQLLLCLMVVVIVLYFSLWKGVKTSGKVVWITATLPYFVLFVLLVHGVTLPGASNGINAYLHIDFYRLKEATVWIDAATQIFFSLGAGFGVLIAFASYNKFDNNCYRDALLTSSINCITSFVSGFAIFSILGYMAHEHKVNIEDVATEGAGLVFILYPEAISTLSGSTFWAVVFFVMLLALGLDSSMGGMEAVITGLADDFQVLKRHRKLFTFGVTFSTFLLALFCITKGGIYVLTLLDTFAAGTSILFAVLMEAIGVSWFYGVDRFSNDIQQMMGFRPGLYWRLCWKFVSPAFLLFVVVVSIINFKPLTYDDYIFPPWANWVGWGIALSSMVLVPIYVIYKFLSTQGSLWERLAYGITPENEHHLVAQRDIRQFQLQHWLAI
Sigma non-opioid intracellular receptor 1, sequence (Q99720 whole entry): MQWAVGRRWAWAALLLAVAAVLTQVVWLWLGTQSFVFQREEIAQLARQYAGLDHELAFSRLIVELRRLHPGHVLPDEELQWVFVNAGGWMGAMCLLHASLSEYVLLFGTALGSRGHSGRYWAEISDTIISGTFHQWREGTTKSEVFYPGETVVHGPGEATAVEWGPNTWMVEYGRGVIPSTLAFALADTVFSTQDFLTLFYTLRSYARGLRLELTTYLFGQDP
hERG (KCNH2), sequence (Q12809 whole entry): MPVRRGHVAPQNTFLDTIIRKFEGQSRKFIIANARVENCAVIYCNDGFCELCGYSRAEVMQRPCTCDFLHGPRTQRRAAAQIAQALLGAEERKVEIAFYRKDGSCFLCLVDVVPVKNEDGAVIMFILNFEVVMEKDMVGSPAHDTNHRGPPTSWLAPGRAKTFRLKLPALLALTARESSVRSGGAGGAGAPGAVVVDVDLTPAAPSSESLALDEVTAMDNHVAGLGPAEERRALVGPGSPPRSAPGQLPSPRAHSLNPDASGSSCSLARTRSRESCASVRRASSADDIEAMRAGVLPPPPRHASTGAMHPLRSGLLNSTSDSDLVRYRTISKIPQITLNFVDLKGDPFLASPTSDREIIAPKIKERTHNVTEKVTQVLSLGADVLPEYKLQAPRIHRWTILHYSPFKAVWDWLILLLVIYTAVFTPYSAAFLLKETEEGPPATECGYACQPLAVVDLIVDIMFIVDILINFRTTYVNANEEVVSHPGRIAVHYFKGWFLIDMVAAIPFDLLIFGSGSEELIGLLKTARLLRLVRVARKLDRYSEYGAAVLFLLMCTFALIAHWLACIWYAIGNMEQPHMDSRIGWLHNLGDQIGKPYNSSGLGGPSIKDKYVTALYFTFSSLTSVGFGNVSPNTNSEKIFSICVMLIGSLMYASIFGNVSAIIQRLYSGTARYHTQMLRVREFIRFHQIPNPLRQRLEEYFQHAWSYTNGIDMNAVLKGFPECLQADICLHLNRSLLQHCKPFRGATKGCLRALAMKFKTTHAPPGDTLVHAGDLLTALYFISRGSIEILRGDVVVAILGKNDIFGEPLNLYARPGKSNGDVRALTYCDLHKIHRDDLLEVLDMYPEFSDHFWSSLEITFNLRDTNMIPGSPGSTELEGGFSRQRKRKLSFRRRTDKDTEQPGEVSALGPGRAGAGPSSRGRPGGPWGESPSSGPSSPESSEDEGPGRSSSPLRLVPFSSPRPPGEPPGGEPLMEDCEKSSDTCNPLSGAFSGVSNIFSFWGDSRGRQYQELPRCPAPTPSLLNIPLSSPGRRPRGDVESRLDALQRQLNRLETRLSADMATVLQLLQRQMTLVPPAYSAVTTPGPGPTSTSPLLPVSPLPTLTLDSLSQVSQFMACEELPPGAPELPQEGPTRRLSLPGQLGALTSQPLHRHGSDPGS

SMILES | Ki [1] [nM] | Ki [2] [nM] | Ki [3] [nM] | Ki [4] [nM] | solubility at 1.5 h, 100 µM [5] [µM] | solubility at 1.5 h, 100 µM [6] [µM] | half-life at 10 µM [8] [h] | Cmax [9] [ng/mL] | Cmax [10] [ng/mL] | AUC at 24 h [11] [ng·h/mL] | AUC at 24 h [12] [ng·h/mL] | Kp uu at 20 µM [15] | Vd [16] [L/kg] | CL/F [17] [mL/min/kg] | half-life [18] [h] | half-life [19] [h] | CLint scaled at 2 h, 10 µM (in vitro [20]) [mL/min/kg] | also measured
COc1ccc2c(c1)[C@@]13CCCC[C@@H]1[C@@H](C2)N(C)CC3 | > 10000 | 624 | 862 | 73 | 94 (≈ 25.5 µg/mL) | 88 (≈ 23.9 µg/mL) | 3.42 | 9.7 | 214 | 21.3 | 389 | 27.9 | 589 | 2990 | 2 | 2.07 | 6.09 | IC50 [7]: > 10000 nM; inhibition at 0.25 h, 10 µM (hERG (KCNH2)): 0.1%; Cp(f) [13]: 19.3%; Cp(f) [14]: 21.6%; Papp A→B (in vitro [21]): 1.48 ×10⁻⁶ cm/s; Papp B→A (in vitro [22]): 1.21 ×10⁻⁶ cm/s
CN1CC[C@]23CCCC[C@@H]2[C@H]1Cc1ccc(O)cc13 | > 340 | 486 | > 10000 | 118 | – | – | – | – | – | – | – | – | – | – | – | – | – | Ki [23]: 401 nM
[2H]C([2H])([2H])N1CC[C@@]23CCCC[C@@H]2[C@@H]1Cc1ccc(OC(F)(F)F)cc13 | – | – | – | – | 100 (≈ 32.8 µg/mL) | 86 (≈ 28.2 µg/mL) | 2.67 | 32 | 725 | 205 | 5810 | 1.2 | 43 | 202 | 2.45 | 3.03 | 7.81 | Cp(f) [13]: 40.2%; Cp(f) [14]: 2.1%
[2H]C([2H])([2H])N1CC[C@@]23CCCC[C@@H]2[C@@H]1Cc1ccc(OC(F)F)cc13 | – | – | – | – | 101 (≈ 31.4 µg/mL) | 83 (≈ 25.8 µg/mL) | 1.58 | – | – | – | – | – | – | – | – | – | 13.2 | –
[2H]C([2H])([2H])N1CC[C@@]23CCCC[C@@H]2[C@@H]1Cc1ccc(C(F)(F)C(F)(F)F)cc13 | – | – | – | – | 82 (≈ 29.7 µg/mL) | 70 (≈ 25.4 µg/mL) | 2.07 | – | – | – | – | – | – | – | – | – | 10 | –
CN1CC[C@@]23CCCC[C@@H]2[C@@H]1Cc1ccc(OC(F)(F)F)cc13 | > 10000 | > 10000 | 833 | 757 | > 100 | 60 (≈ 19.5 µg/mL) | 3.67 | 12 | 756 | 131 | 9460 | 3.3 | 77 | 318 | 2.8 | 3.18 | 5.66 | Ki [23]: 48 nM; IC50 [24]: 31 nM; IC50 [7]: > 10000 nM; inhibition at 0.25 h, 10 µM (hERG (KCNH2)): 6.1%; efflux ratio [25]: 1.13; Papp A→B (in vitro [21]): 0.989 ×10⁻⁶ cm/s; Papp B→A (in vitro [22]): 1.12 ×10⁻⁶ cm/s
[2H]C([2H])([2H])Oc1ccc2c(c1)[C@@]13CCCC[C@@H]1[C@@H](C2)N(C([2H])([2H])[2H])CC3 | – | – | – | – | 112 (≈ 31.1 µg/mL) | 95.5 (≈ 26.5 µg/mL) | 4.4 | 5.5 | 53.1 | 15 | 97.3 | 10.8 | – | 1840 | 7.07 | 4.9 | 4.72 | –
